Where a SMILES comes first, the peptide text is derived from it. Bridges are numbered along the chain shown (N, C = ends). [ ]: non-standard residue; d: D form. The star is where a group is joined. 6FAM = O=C1OC2(c3ccc(O)cc3Oc3cc(O)ccc32)c2cc(C(=O)*)ccc21; Biotin = O=C1N[C@H]2[C@H](CS[C@H]2CCCCC(=O)*)N1; NMeF = CN[C@@H](Cc1ccccc1)C(=O)O; NMeL = CN[C@@H](CC(C)C)C(=O)O; NMeS = CN[C@@H](CO)C(=O)O; Pent4ynoyl = C#CCCC(=O)*; Dap = NC[C@H](N)C(=O)O; AEEA = NCCOCCOCC(=O)O; Aoc = NCCCCCCCC(=O)O; Ava = NCCCCC(=O)O; Mpa = O=C(O)CCS
How the values were obtained:
[1] = Inhibition of AgrC-1 Staphylococcus epidermidis AH3408 incubated for 24 hrs by fluorescence assay
[2] = Inhibition of AgrC-1 in Staphylococcus aureus RN9222 incubated for 1 hr in presence of AIP agonist by beta-lactamase reporter gene assay
[3] = Inhibition of AgrC-2 in Staphylococcus aureus RN9372 incubated for 1 hr in presence of AIP agonist by beta-lactamase reporter gene assay
[4] = Inhibition of AgrC-1 in Staphylococcus aureus AH1677 incubated for 24 hrs by fluorescence assay
[5] = Inhibition of AgrC-4 in Staphylococcus aureus AH1872 incubated for 24 hrs by fluorescence assay
[6] = Inhibition of AgrC-3 in Staphylococcus aureus AH1747 incubated for 24 hrs by fluorescence assay
[7] = Inhibition of AgrC-2 in Staphylococcus aureus AH430 incubated for 24 hrs by fluorescence assay
[8] = molecular target: T1, Chloramphenicol acetyltransferase (Staphylococcus epidermidis) (UniProt D2JCN2); experiment: Activation of Chloramphenicol acetyltransferase activity in Staphylococcus epidermidis Tu3298 at 200 nM and measured every 15 sec for 20 mins (reference value: 12.5 U/mg)
T1 sequence (whole entry): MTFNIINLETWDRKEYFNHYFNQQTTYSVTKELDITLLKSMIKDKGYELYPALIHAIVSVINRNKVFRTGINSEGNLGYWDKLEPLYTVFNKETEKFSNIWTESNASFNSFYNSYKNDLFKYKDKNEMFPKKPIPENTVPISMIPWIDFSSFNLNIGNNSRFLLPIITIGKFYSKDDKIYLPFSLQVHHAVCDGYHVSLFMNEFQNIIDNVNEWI

[9] = Inhibition of AgrC-2 in Staphylococcus aureus RN9372 incubated for 60 to 90 mins in presence of AIP agonist by beta-lactamase reporter gene assay
[10] = Inhibition of AgrC-2 in Staphylococcus aureus
[11] = Inhibition of AgrC-1 in Staphylococcus aureus
[12] = Inhibition of AgrC-4 in Staphylococcus aureus

Row | IC50 [4] | IC50 [5] | IC50 [6] | IC50 [7] | Compound | further results
1 | – | – | – | – | CC(C)C[C@@H]1NC(=O)[C@H](Cc2ccc(O)cc2)NC(=O)[C@H](CC(N)=O)NC(=O)[C@H](CO)NC(=O)[C@@H](NC(=O)[C@@H]2CCCN2C(=O)[C@H](CC(N)=O)NC(=O)[C@H](Cc2ccc(O)cc2)NC(=O)[C@H](CCCCN)NC(=O)[C@H](CO)NC(=O)[C@H](C)NC(=O)[C@@H](N)CC(N)=O)CSC1=O (H-NASKYNPCSNYL; thioester 8-C) | IC50 [1]: 9.64 nM
2 | – | – | – | – | CC(=O)N[C@H]1CSC(=O)[C@H](Cc2ccccc2)N(C)C(=O)[C@H](CC(C)C)NC(=O)CCCCNC1=O (Ac-C[Ava]L[NMeF]; thioester 1-C) | IC50 [2]: 1140 nM; IC50 [3]: 50700 nM
3 | > 1000 nM | 299 nM | 75.2 nM | > 1000 nM | CC[C@H](C)[C@H](N)C(=O)N[C@@H](CC(N)=O)C(=O)N[C@H]1CNC(=O)[C@H](CC(C)C)NC(=O)[C@H](CC(C)C)NC(=O)[C@H](Cc2ccccc2)NC(=O)[C@H](CC(=O)O)NC1=O (H-IN[Dap]DFLL; lactam 3-C) | –
4 | – | – | – | – | C[C@H](N)C(=O)N[C@@H](CO)C(=O)N[C@@H](C)C(=O)N[C@H]1CSC(=O)[C@H](Cc2ccccc2)NC(=O)[C@H](Cc2ccc(O)cc2)NC(=O)[C@H](C)NC(=O)[C@H](C)NC1=O (H-ASACAAYF; thioester 4-C) | IC50 [1]: 2.84 nM
5 | 3940 nM | – | 573 nM | 2200 nM | CC(=O)N[C@H]1CNC(=O)[C@H](Cc2ccccc2)NC(=O)[C@H](Cc2ccccc2)NC(=O)CCCCCCCNC1=O (Ac-[Dap][Aoc]FF; lactam 1-C) | –
6 | – | – | – | – | CC(=O)N[C@H]1CSC(=O)[C@H](Cc2ccccc2)NC(=O)[C@H](CC(C)C)NC(=O)[C@H](CO)NC(=O)[C@H](CO)N(C)C1=O (Ac-C[NMeS]SLF; thioester 1-C) | IC50 [2]: 639 nM; IC50 [3]: 7880 nM
7 | – | – | – | – | CC(C)[C@H](NC(=O)[C@@H](N)CO)C(=O)N[C@H]1CSC(=O)[C@H](Cc2ccccc2)NC(=O)[C@H](Cc2ccc(O)cc2)NC(=O)[C@H](CO)NC(=O)[C@H](C)NC1=O (H-SVCASYF; thioester 3-C) | Activity [8]: 16.1 U/mg
8 | – | – | – | – | CC[C@H](C)[C@H](NC(=O)c1ccc2c(c1)C1(OC2=O)c2ccc(O)cc2Oc2cc(O)ccc21)C(=O)N[C@@H](CC(N)=O)C(=O)N[C@H]1CSC(=O)[C@H](CC(C)C)NC(=O)[C@H](CC(C)C)NC(=O)[C@H](Cc2ccccc2)NC(=O)[C@H](C)NC1=O (6FAM-INCAFLL; thioester 3-C) | IC50 [9]: 22 nM
9 | – | – | – | – | H-DSVCASYF-OH | Activity [8]: 9.8 U/mg
10 | 101 nM | 140 nM | 9.3 nM | 97 nM | CC(=O)N[C@H]1CSC(=O)[C@H](Cc2ccccc2)NC(=O)[C@H](CC(C)C)NC(=O)[C@H](CO)NC(=O)[C@H](CO)NC1=O (Ac-CSSLF; thioester 1-C) | –
11 | – | – | – | – | CC[C@@H](C)[C@H](N)C(=O)N[C@H](CC(N)=O)C(=O)N(C)[C@@H]1CSC(=O)[C@@H](CC(C)C)N(C)C(=O)[C@@H](CC(C)C)NC(=O)CN(Cc2ccccc2)C(=O)[C@@H](CC(=O)O)NC1=O | IC50 [10]: 1.95 nM; IC50 [11]: 4.49 nM; IC50 [12]: 6.59 nM
12 | – | – | – | – | CC(=O)N[C@H]1CSC(=O)[C@H](Cc2ccccc2)NC(=O)[C@H](CC(C)C)NC(=O)[C@H](CO)NC(=O)CNC1=O (Ac-CGSLF; thioester 1-C) | IC50 [2]: 189 nM; IC50 [3]: 1160 nM
13 | 468 nM | 3490 nM | 125 nM | 479 nM | CC(=O)N[C@H]1CSC(=O)[C@H](Cc2ccccc2)NC(=O)[C@H](Cc2ccccc2)NC(=O)CCCCCCCCNC1=O | –
14 | – | – | – | – | H-SVCASYF-OH | Activity [8]: 8.9 U/mg
15 | 0.257 nM | 0.0957 nM | 0.329 nM | 0.9 nM | CC(C)C[C@@H]1NC(=O)[C@H](CO)NC(=O)[C@H](CO)NC(=O)CCSC(=O)[C@H](Cc2ccccc2)N(C)C1=O ([Mpa]SSL[NMeF]; thioester 1-C) | IC50 [2]: 1680 nM; IC50 [3]: 47300 nM
16 | – | – | – | – | CC(=O)N[C@H]1CSC(=O)[C@H](Cc2ccccc2)NC(=O)[C@H](CC(C)C)N(C)C(=O)[C@H](CO)NC(=O)[C@H](CO)NC1=O (Ac-CSS[NMeL]F; thioester 1-C) | IC50 [2]: > 30000 nM; IC50 [3]: > 30000 nM
17 | – | – | – | – | CC[C@@H](C)[C@H](N)C(=O)N[C@H](CC(N)=O)C(=O)N(C)[C@@H]1CSC(=O)[C@@H](CC(C)C)N(C)C(=O)[C@@H](CC(C)C)NC(=O)[C@@H](Cc2ccccc2)NC(=O)[C@@H](CC(=O)O)NC1=O | IC50 [10]: 134 nM; IC50 [11]: 137 nM; IC50 [12]: 106 nM

Row | IC50 [4] | IC50 [5] | IC50 [6] | IC50 [7] | Compound | further results
18 | 4.88 nM | 3.87 nM | 0.387 nM | 6.47 nM | O=C1COCCOCCNC(=O)[C@H](NC(=O)Cc2ccccc2)CSC(=O)[C@H](Cc2cccc(Cl)c2)NC(=O)[C@H](CC2CCCC2)N1 | –
19 | – | – | – | – | CC(C)[C@H](NC(=O)[C@H](CO)NC(=O)[C@H](CC(=O)O)NC(=O)CN)C(=O)N[C@H]1CSC(=O)[C@H](Cc2ccccc2)NC(=O)[C@H](Cc2ccc(O)cc2)NC(=O)[C@H](CO)NC(=O)[C@H](C)NC1=O (H-GDSVCASYF; thioester 5-C) | Activity [8]: 15.6 U/mg
20 | – | – | – | – | CC[C@H](C)[C@@H]1NC(=O)[C@H](Cc2ccccc2)NC(=O)[C@H](CC(=O)O)NC(=O)[C@@H](NC(=O)[C@@H](NC(=O)[C@H](CO)NC(=O)[C@H](Cc2ccc(O)cc2)NC(=O)CCCC[C@@H]2SC[C@@H]3NC(=O)N[C@@H]32)[C@@H](C)O)CSC(=O)[C@H](CCSC)NC1=O (Biotin-YSTCDFIM; thioester 4-C) | IC50 [9]: 40 nM
21 | 1.5 nM | 0.189 nM | 0.216 nM | 13.9 nM | CC(C)C[C@@H]1NC(=O)[C@H](CC(C)C)NC(=O)[C@H](Cc2ccccc2)NC(=O)[C@H](C)NC(=O)[C@@H](N)CNC1=O (H-[Dap]AFLL; lactam 1-C) | –
22 | – | – | – | – | H-GDSVCASYF-OH | Activity [8]: 11.2 U/mg
23 | – | – | – | – | CC(C)C[C@@H]1NC(=O)[C@H](Cc2ccc(O)cc2)NC(=O)[C@H](CO)NC(=O)[C@H](C)NC(=O)[C@@H](NC(=O)[C@@H]2CCCN2C(=O)[C@H](CC(N)=O)NC(=O)[C@H](Cc2ccc(O)cc2)NC(=O)[C@H](CCCCN)NC(=O)[C@H](C)NC(=O)[C@H](C)NC(=O)[C@@H](N)CC(N)=O)CSC1=O (H-NAAKYNPCASYL; thioester 8-C) | IC50 [1]: 34.3 nM
24 | – | – | – | – | CC(=O)N[C@H]1CNC(=O)[C@H](Cc2ccccc2)N(C)C(=O)[C@H](CC(C)C)NC(=O)[C@H](CO)NC(=O)[C@H](CO)NC1=O (Ac-[Dap]SSL[NMeF]; lactam 1-C) | IC50 [2]: 1390 nM; IC50 [3]: 167000 nM
25 | > 10000 nM | > 10000 nM | > 10000 nM | > 10000 nM | CC(=O)N[C@@H]1C/C=C\[C@H](Cc2ccccc2)NC(=O)[C@H](CC(C)C)NC(=O)[C@H](CO)NC(=O)[C@H](CO)NC1=O | –
26 | 4740 nM | – | 2610 nM | 1340 nM | CC(=O)N[C@H]1CNC(=O)[C@H](Cc2ccccc2)NC(=O)[C@H](Cc2ccccc2)NC(=O)CCCCCCCCNC1=O | –
27 | 1000 nM | > 1000 nM | > 1000 nM | > 1000 nM | C#CCCC(=O)N[C@H](C(=O)N[C@@H](CC(N)=O)C(=O)N[C@H]1CSC(=O)[C@H](CC(C)C)NC(=O)[C@H](CC(C)C)NC(=O)[C@H](Cc2ccccc2)NC(=O)[C@H](C)NC1=O)[C@@H](C)CC (Pent4ynoyl-INCAFLL; thioester 3-C) | –
28 | – | – | – | – | CC(=O)N[C@H]1CSC(=O)[C@H](Cc2ccccc2)N(C)C(=O)[C@H](CC(C)C)NC(=O)[C@H](CO)NC(=O)[C@H](CO)NC1=O (Ac-CSSL[NMeF]; thioester 1-C) | IC50 [2]: > 30000 nM; IC50 [3]: > 30000 nM
29 | 181 nM | 5940 nM | 332 nM | 583 nM | CC(=O)N[C@H]1CSC(=O)[C@H](Cc2ccccc2)NC(=O)[C@H](Cc2ccccc2)NC(=O)COCCOCCNC1=O (Ac-C[AEEA]FF; thioester 1-C) | –
30 | > 10000 nM | > 10000 nM | > 10000 nM | > 10000 nM | CC(=O)N[C@H]1CNC(=O)[C@H](Cc2ccccc2)NC(=O)[C@H](Cc2ccccc2)NC(=O)COCCOCCNC1=O (Ac-[Dap][AEEA]FF; lactam 1-C) | –
31 | 2.01 nM | 4.75 nM | 0.0918 nM | 17.9 nM | O=C1COCCOCCNC(=O)[C@H](NC(=O)Cc2ccccc2)CSC(=O)[C@H](Cc2cccc(F)c2)NC(=O)[C@H](CC2CCCC2)N1 | –
32 | 340 nM | 985 nM | 34.8 nM | 495 nM | CC(=O)N[C@H]1CSC(=O)[C@H](Cc2ccccc2)NC(=O)[C@H](Cc2ccccc2)NC(=O)CCCCCCCNC1=O (Ac-C[Aoc]FF; thioester 1-C) | –
33 | – | – | – | – | CC(=O)N[C@H]1CSC(=O)[C@H](Cc2ccccc2)NC(=O)[C@H](CC(C)C)NC(=O)[C@H](CO)N(C)C(=O)[C@H](CO)NC1=O (Ac-CS[NMeS]LF; thioester 1-C) | IC50 [2]: 319 nM; IC50 [3]: 1050 nM
34 | – | – | – | – | C[C@H](N)C(=O)N[C@@H](CO)C(=O)N[C@@H](C)C(=O)N[C@H]1CSC(=O)[C@H](Cc2ccccc2)NC(=O)[C@H](Cc2ccc(O)cc2)NC(=O)[C@H](C)NC(=O)[C@H](CO)NC1=O (H-ASACSAYF; thioester 4-C) | IC50 [1]: 2.08 nM
